Measurements taken from PMC4632357, “Impact of chrysosplenetin on the pharmacokinetics and anti-malarial efficacy of artemisinin against Plasmodium berghei as well as in vitro CYP450 enzymatic activities in rat liver microsome” (Malaria Journal, 2015).

Legend:
[1] = Pharmacokinetics of ART in rats in absence and presence of CHR; type: in vivo; settings: ART in rat plasma, ART 5 mg/kg intramuscular on day 3, 1 h after 3-day oral CHR (5, 10, 20 mg/kg for 1:1, 1:2, 1:4) or CMC-Na, n = 5, mean ± SD
Description: Male SD rats (200-240 g) were supplied by Laboratory Animal Center of […] Medical University (Grade II, Certificate No. […] Animals were acclimatized in environmentally controlled breeding cages for at least 3 days before being used and were provided with standard laboratory food and water and were fasted for 12 h prior to the study. Water was freely available for rats during experiments. The experimental protocol was approved by the University Ethics Committee. All procedures involving animals were in accordance with the Regulations of the Experimental Animal Administration, State Committee of Science and Technology, People's Republic of China. 20 rats were randomly divided into 4 groups (n = 5). Group A was the control vehicle (ART alone) and group L, M, and H were the combination groups with CHR in three fixed ratios (1:1, 1:2, and 1:4). […] Group A was orally given by 0.5 % CMC-Na solution once per day for 3 days. On day 3, an intramuscular injection of ART (5 mg/kg) was subsequently administered 1 h after CHR or CMC-Na solution pre-exposure. […] Two hours later, animals took food and water freely to replenish. Plasma samples were separated by centrifugation 3500g for 10 min and 200 μL plasmas were stored at -20 °C until analysis. To 100 μL blank plasma, 50 μL ARM working solution (IS, 2 μg/mL), 100 μL methanol aqueous solution (50:50, v/v), and a standard solution or quality control (QC) solution were added. After vortex mixing for 1 min, the sample was extracted with 3 × 3 mL of methyl tert-butyl ether with gentle shaking for 10 min followed by centrifugation at 3500g for 10 min. […] The residue was reconstituted in 100 μL methanol and was filtered through a 0.22 μm nylon filter. Aliquots (10 μL) of the solution were injected onto the LC-MS analysis. Pharmacokinetic parameters were computed from plasma concentration-time profiles of ART by software DAS 3.0.

[2] = set-up: method as in PMID 17521300, PMID 18064444, PMID 9443848; settings: cited from earlier work
[3] = test system: P. berghei K173 strain; test: In vivo anti-malarial efficacy (chemo-suppressive study) in infected mice; settings: for Parasitemia: placebo 22.15 ± 6.25
[4] = test system: CYP2A; test: in vitro; settings: rat
[5] = test system: CYP2A; test: In vitro rat liver microsome experiment, CYP2A (probe CA)
[6] = test system: CYP2C19; test: in vitro; settings: rat
[7] = test system: CYP2C19; test: In vitro rat liver microsome experiment, CYP2C19 (probe OPZ)
[8] = test system: CYP2D6; test: In vitro rat liver microsome experiment, CYP2D6 (probe DM); type: in vitro ADME
Description: (§1) Total reaction volume was complemented to 200 μL by PBS. After pre-incubating for 3 min at 37 °C, the reaction was initiated by the addition of NADPH solution (incubation time was optimized as 45 min for PN; 60 min for CA, 15 min for OPZ; 20 min for DM; 90 min for CLZ; 15 min for MDZ). 200 μL ice acetonitrile was added as stop reagent. After a vortex for 3 min and centrifugation for 10 min at 14,000g, an aliquot of 20 μL supernatant was injected into the HPLC system at an interval of 10 min. The amount of methanol in diluted concentrations (<1 %) had no effect on liver microsomes. All the testing groups were in three replicates (n = 3). Under the optimized condition, Vmax, Michaelis constant (Km), enzyme activity (E%), and IC50 values were obtained.

[9] = molecular target: T1, CYP1A2 (Rattus norvegicus, UniProt P04799); test: In vitro rat liver microsome experiment, CYP1A2 (probe PN); type: in vitro ADME
T1 sequence (P04799 1-513): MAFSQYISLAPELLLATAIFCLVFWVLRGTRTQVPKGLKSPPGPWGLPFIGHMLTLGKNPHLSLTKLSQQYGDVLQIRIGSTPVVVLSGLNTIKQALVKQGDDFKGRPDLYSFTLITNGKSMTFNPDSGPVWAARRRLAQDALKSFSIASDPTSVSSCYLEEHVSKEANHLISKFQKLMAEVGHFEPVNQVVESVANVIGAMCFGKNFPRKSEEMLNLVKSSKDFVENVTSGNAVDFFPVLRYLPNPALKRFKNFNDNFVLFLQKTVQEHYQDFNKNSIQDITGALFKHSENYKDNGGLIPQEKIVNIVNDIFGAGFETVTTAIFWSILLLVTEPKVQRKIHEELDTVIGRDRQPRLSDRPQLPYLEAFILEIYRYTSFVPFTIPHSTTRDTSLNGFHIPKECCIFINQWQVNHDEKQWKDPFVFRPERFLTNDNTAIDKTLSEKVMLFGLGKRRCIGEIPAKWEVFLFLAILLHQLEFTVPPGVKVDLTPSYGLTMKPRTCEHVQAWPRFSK

[10] = molecular target: CYP2E1 (Rattus norvegicus, UniProt P05182); test: In vitro rat liver microsome experiment, CYP2E1 (probe CLZ); type: in vitro ADME
Sequence of CYP2E1 (P05182 whole entry): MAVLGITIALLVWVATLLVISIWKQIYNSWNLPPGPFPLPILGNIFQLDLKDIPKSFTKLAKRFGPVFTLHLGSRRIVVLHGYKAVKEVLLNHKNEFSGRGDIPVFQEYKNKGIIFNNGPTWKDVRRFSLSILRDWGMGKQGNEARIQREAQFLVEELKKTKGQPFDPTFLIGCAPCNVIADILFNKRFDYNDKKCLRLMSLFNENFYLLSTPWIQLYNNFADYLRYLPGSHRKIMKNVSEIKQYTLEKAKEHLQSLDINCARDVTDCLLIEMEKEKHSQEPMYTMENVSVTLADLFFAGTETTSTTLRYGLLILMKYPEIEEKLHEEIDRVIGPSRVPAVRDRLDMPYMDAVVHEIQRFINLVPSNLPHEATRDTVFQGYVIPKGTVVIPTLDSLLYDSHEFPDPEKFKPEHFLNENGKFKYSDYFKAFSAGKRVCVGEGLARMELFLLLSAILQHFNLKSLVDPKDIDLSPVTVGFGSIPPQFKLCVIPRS

[11] = test system: CYP3A; test: In vitro rat liver microsome experiment, CYP3A (probe MDZ); type: in vitro ADME
Description: as §1
Incubation systems including 1.0 mg/mL RLM, PN (12.5, 25.0, and 50.0 μM), NPDPH, and CHR (0, 2, 4, 8 μM) for 1A2 or 0.5 mg/mL RLM, MDZ (2.5, 5.0, 10.0 μM), NPDPH, and CHR (0, 2, 4, 8 μM) for CYP3A were employed as above (n = 3). A serial of Lineweaver–Burk plots by 1/[S] versus 1/V were prepared individually under different concentrations of CHR. The location of intersection point for the linear lines decided the type of inhibition. Namely, if the point lied in Y axis it was competitive inhibition and if it lied in X axis it was non-competitive inhibition. Finally, if the linear lines were paralleled, it was uncompetitive inhibition. Concomitantly, inhibition constant (Ki) was calculated when a second plotting was given by intercepts of the four lines versus [I] (inhibitor concentration).

[12] = substrate: CCOc1ccc(NC(C)=O)cc1; test: cells, lysate or membranes named; settings: other: probe substrate in rat liver microsomes; 37.0 °C
[13] = probe substrate in rat liver microsomes
[14] = Lineweaver–Burk plots, rat liver microsomes
[15] = moderate: 1 < IC50 < 10 μM, criteria of ref 21
[16] = rat liver microsomes, CHR 0–50 μM, P > 0.05

With `C[C@@H]1CC[C@H]2[C@@H](C)C(=O)O[C@@H]3O[C@@]4(C)CC[C@@H]1[C@]32OO4` [ART, Artemisinin] the “AUC0–t” value [1] was 390.58 ± 32.46 µg·h/mL, the Cmax ([1]; male) was 51.6 ± 9.47 µg/mL and the half-life ([1]; male) was 3.62 ± 0.86 h. The clearance ([1]; male, read-out: CLz (converted)) was 0.013 L/h/kg, the oral bioavailability [2] was 8–10% and the Parasitemia ([3]; Kunming mice, ART 5 mg/kg alone or with CHR 5, 10, 20 mg/kg (1:1, 1:2, 1:4), 3 days, 24 h after last dosing, n = 10) was 13.95 ± 7.89 %. The “decrease of parasitaemia (%) compared with placebo” value ([3]; mice, P < 0.05) was 1.59 folds and the Inhibition ([3]; relative to placebo, Kunming mice, ART 5 mg/kg alone or with CHR 5, 10, 20 mg/kg, n = 10) was 37.06%.

`O=c1ccc2ccccc2o1` [CA, coumarin, reference compound] gave a Km at 60 min [4] of 8.9 µM and a Vmax [5, 13] of 0.12 nmol/min/mg proteins.

In the case of `COc1ccc2[nH]c([S+]([O-])Cc3ncc(C)c(OC)c3C)nc2c1` (centres unmarked) [OPZ, omeprazole, reference compound], the Km at 15 min [6] is reported as 24.1 µM and the Vmax [7, 13] is reported as 0.58 nmol/min/mg proteins.

Work on `COc1ccc2c(c1)[C@]13CCCC[C@@H]1[C@H](C2)N(C)CC3` [DM, dextromethophan] yielded a Km [8, 13] of 28.9 µM and a Vmax [8, 13] of 0.20 nmol/min/mg proteins.

In the case of `COc1cc(-c2oc3cc(OC)c(OC)c(O)c3c(=O)c2OC)ccc1O` [CHR, chrysosplenetin], the Ki ([9]; 1.0 mg/mL RLM, PN 12.5, 25.0, 50.0 μM, CHR 0, 2, 4, 8 μM, second plot of Lineweaver–Burk intercepts) is reported as 4.07 µM, the inhibition type [9, 14] is reported as “noncompetitive” and the inhibitor strength class [9, 15] is reported as “moderate inhibitor”. For the same molecule, the IC50 ([9]; rat liver microsomes, PN 25 μM, GraphPad Prism 5.0) was 4.61 µM, the “impact on enzyme activity” value [8, 16] was “no impact” and the IC50 ([10]; rat liver microsomes, CLZ 15 μM, GraphPad Prism 5.0) was 28.2 µM. The inhibitor strength class ([10]; weak: IC50 >10 μM, criteria of ref 21) was “weak inhibitor”, the inhibition type [11, 14] was “uncompetitive” and the inhibitor strength class [11, 15] was “moderate inhibitor”. The IC50 at 15 min ([11]; probe midazolam (MDZ) 5 μM, rat liver microsomes, MDZ 5 μM, GraphPad Prism 5.0) was 3.38 µM, the Ki at 15 min ([11]; rat, rat liver microsomes, probe midazolam (MDZ) 2.5, 0.5 mg/mL RLM, MDZ 2.5, 5.0, 10.0 μM, CHR 0, 2, 4, 8 μM, second plot of Lineweaver–Burk intercepts) was 3.71 µM and the “impact on enzyme activity” value [5, 16] was “no impact”. The inhibitor strength class [7, 15] was “moderate inhibitor”, the IC50 at 15 min ([7]; rat, microsomes) was 6.23 µM and the Parasitemia ([3]; CHR alone 5 mg/kg (CHR-L), Kunming mice, n = 10) was 19.74 ± 13.33%. The Parasitemia ([3]; CHR alone 10 mg/kg (CHR-M), Kunming mice, n = 10) was 17.19 ± 5.45% and the Parasitemia ([3]; CHR alone 20 mg/kg (CHR-H), Kunming mice, n = 10) was 18.32 ± 8.86%.

With `Cc1ncc2n1-c1ccc(Cl)cc1C(c1ccccc1F)=NC2` [MDZ, Midazolam, reference compound] the Km at 15 min [11, 13] was 7.88 µM and the Vmax [11, 13] was 0.81 nmol/min/mg proteins.

B1: CYP1A2 (Rattus norvegicus) (protein)
chain: T1 sequence (P04799 1-513)
B1 showed a Km [12] of 30.88 µM and a Vmax [12] of 0.14 nmol/min/mg proteins.
